Reference: patent publication US12139499B2, “Heteroaryl compounds for treating Huntington's disease” (PTC THERAPEUTICS, INC., priority 2018, dated 2024)

Tested on: Endogenous Huntingtin Protein
Test: Endogenous Huntingtin Protein Assay (ELISA-based MSD electrochemiluminescence)
Format: cell-based
Settings: Table 1
Method in brief: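 Huntingtin was captured overnight at 4 °C on plates coated with 1 μg/mL MW1 (polyQ-expanded) or MAB2166 antibody and BSA-blocked. Detection used a rabbit monoclonal and then a SULFO-TAG goat anti-rabbit antibody (0.25 μg/mL, 1 h each, room temperature). Signal was read by electrochemiluminescence.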

SMILES | IC50 [nM]
Cc1cn2cc(-c3cc(F)c4nc(N(C)C5CCNCC5)sc4c3)cc2c(C)n1 [Compound 225, 6-(1,3-dimethylpyrrolo[1,2-a]pyrazin-7-yl)-4-fluoro-N-methyl-N-(piperidin-4-yl)-1,3-benzothiazol-2-amine] | ≤ 100
Cc1cn2cc(-c3cc(F)c4nc(N(C)C5CCNCC5)sc4c3)cc(C#N)c2n1 [Compound 226, 6-{4-fluoro-2-[methyl(piperidin-4-yl)amino]-1,3-benzothiazol-6-yl}-2-methylimidazo[1,2-a]pyridine-8-carbonitrile] | ≤ 100
Cc1cn2cc(-c3ncc4nc(N(C)C5C6CCC5CNC6)sc4n3)cc(F)c2n1 (stereo not drawn) [Compound 227, N-[(8-anti)-3-azabicyclo[3.2.1]oct-8-yl]-5-(8-fluoro-2-methylimidazo[1,2-a]pyridin-6-yl)-N-methyl[1,3]thiazolo[5,4-d]pyrimidin-2-amine] | 1000 to 3000
Cc1cn2cc(-c3ncc4nc(N(C)C5C6CCC5CNC6)sc4n3)cc(C#N)c2n1 (stereo not drawn) [Compound 228, 6-{2-[(8-anti)-3-azabicyclo[3.2.1]oct-8-yl(methyl)amino][1,3]thiazolo[5,4-d]pyrimidin-5-yl}-2-methylimidazo[1,2-a]pyridine-8-carbonitrile] | 500 to 1000
Cc1cn2cc(-c3cc(F)c4nc(C5CCNCC5)sc4c3)nc2c(C)n1 [Compound 229, 2-[4-fluoro-2-(piperidin-4-yl)-1,3-benzothiazol-6-yl]-6,8-dimethylimidazo[1,2-a]pyrazine] | ≤ 100
Cc1cn2nc(-c3cc(F)c4nc(C5CCNCC5)sc4c3)cc(C#N)c2n1 [Compound 230, 6-[4-fluoro-2-(piperidin-4-yl)-1,3-benzothiazol-6-yl]-2-methylimidazo[1,2-b]pyridazine-8-carbonitrile] | ≤ 100
Cc1cn2nc(-c3cc(F)c4nc(N(C)C5CCNCC5)sc4c3)cc(C#N)c2n1 [Compound 231, 6-{4-fluoro-2-[methyl(piperidin-4-yl)amino]-1,3-benzothiazol-6-yl}-2-methylimidazo[1,2-b]pyridazine-8-carbonitrile] | ≤ 100
Cn1cc2cc(-c3cc4sc(NC5CC(C)(C)NC(C)(C)C5)nc4cn3)cc(F)c2n1 [Compound 232, 6-(7-fluoro-2-methyl-2H-indazol-5-yl)-N-(2,2,6,6-tetramethylpiperidin-4-yl)[1,3]thiazolo[4,5-c]pyridin-2-amine] | ≤ 100
Cn1cc2cc(-c3cc4sc(NC5CC(C)(C)NC(C)(C)C5)nc4cn3)cc(C#N)c2n1 [Compound 233, 2-methyl-5-{2-[(2,2,6,6-tetramethylpiperidin-4-yl)amino][1,3]thiazolo[4,5-c]pyridin-6-yl}-2H-indazole-7-carbonitrile] | ≤ 100
Cc1cn2cc(-c3cc4sc(NC5CC(C)(C)NC(C)(C)C5)nc4cn3)cc(F)c2n1 [Compound 234, 6-(8-fluoro-2-methylimidazo[1,2-a]pyridin-6-yl)-N-(2,2,6,6-tetramethylpiperidin-4-yl)[1,3]thiazolo[4,5-c]pyridin-2-amine] | ≤ 100
Cc1cn2nc(-c3cc(F)c4nc(N(C)C5CC6CCC(C5)N6)sc4c3)cc(C#N)c2n1 (stereo not drawn) [Compound 235, 6-{2-[(3-exo)-8-azabicyclo[3.2.1]oct-3-yl(methyl)amino]-4-fluoro-1,3-benzothiazol-6-yl}-2-methylimidazo[1,2-b]pyridazine-8-carbonitrile] | ≤ 100
Cc1cn2nc(-c3cc(F)c4nc(N(C)C5CC6CCC(C5)N6)sc4c3)cc(C(N)=O)c2n1 (stereo not drawn) [Compound 236, 6-{2-[(3-exo)-8-azabicyclo[3.2.1]oct-3-yl(methyl)amino]-4-fluoro-1,3-benzothiazol-6-yl}-2-methylimidazo[1,2-b]pyridazine-8-carboxamide] | ≤ 100
CN(c1nc2c(F)cc(-c3ccc4nn(C)cc4n3)cc2s1)C1CC2CCC(C1)N2 (stereo not drawn) [Compound 237, N-[(3-exo)-8-azabicyclo[3.2.1]oct-3-yl]-4-fluoro-N-methyl-6-(2-methyl-2H-pyrazolo[4,3-b]pyridin-5-yl)-1,3-benzothiazol-2-amine] | 100 to 500
CN(c1nc2cnc(-c3cc(C#N)c4nn(C)cc4c3)cc2s1)[C@@H]1C[C@H]2CC[C@@H](C1)N2C [Compound 238, 2-methyl-5-(2-{methyl[(3-exo)-8-methyl-8-azabicyclo[3.2.1]oct-3-yl]amino}[1,3]thiazolo[4,5-c]pyridin-6-yl)-2H-indazole-7-carbonitrile] | ≤ 100
Cc1cn2cc(-c3cc4sc(N(C)[C@@H]5C[C@H]6CC[C@@H](C5)N6C)nc4cn3)cc(F)c2n1 [Compound 239, 6-(8-fluoro-2-methylimidazo[1,2-a]pyridin-6-yl)-N-methyl-N-[(3-exo)-8-methyl-8-azabicyclo[3.2.1]oct-3-yl][1,3]thiazolo[4,5-c]pyridin-2-amine] | 100 to 500
Cc1cn2cc(-c3cc4sc(N(C)[C@@H]5C[C@H]6CC[C@@H](C5)N6C)nc4cn3)cc(C#N)c2n1 [Compound 240, 2-methyl-6-(2-{methyl[(3-exo)-8-methyl-8-azabicyclo[3.2.1]oct-3-yl]amino}[1,3]thiazolo[4,5-c]pyridin-6-yl)imidazo[1,2-a]pyridine-8-carbonitrile] | 100 to 500

SMILES | IC50 [nM]
CN(c1nc2cnc(-c3cc(F)c4nn(C)cc4c3)cc2s1)[C@@H]1C[C@H]2CC[C@@H](C1)N2C [Compound 241, 6-(7-fluoro-2-methyl-2H-indazol-5-yl)-N-methyl-N-[(3-exo)-8-methyl-8-azabicyclo[3.2.1]oct-3-yl][1,3]thiazolo[4,5-c]pyridin-2-amine] | 100 to 500
CCN(c1nc2cnc(-c3cc(C#N)c4nc(C)cn4c3)nc2s1)C1CC(C)(C)NC(C)(C)C1 [Compound 242, 6-{2-[ethyl(2,2,6,6-tetramethylpiperidin-4-yl)amino][1,3]thiazolo[5,4-d]pyrimidin-5-yl)-2-methylimidazo[1,2-a]pyridine-8-carbonitrile] | 100 to 500
CCN(c1nc2cnc(-c3cc(F)c4nc(C)cn4c3)nc2s1)C1CC(C)(C)NC(C)(C)C1 [Compound 243, N-ethyl-5-(8-fluoro-2-methylimidazo[1,2-a]pyridin-6-yl)-N-(2,2,6,6-tetramethylpiperidin-4-yl)[1,3]thiazolo[5,4-d]pyrimidin-2-amine] | 100 to 500
CN1[C@@H]2CC[C@H]1C[C@H](Nc1nc3cnc(-c4cc(C#N)c5nn(C)cc5c4)cc3s1)C2 [Compound 244, 2-methyl-5-(2-{[(3-exo)-8-methyl-8-azabicyclo[3.2.1]oct-3-yl]amino][1,3]thiazolo[4,5-c]pyridin-6-yl)-2H-indazole-7-carbonitrile] | 1000 to 3000
Cc1cn2cc(-c3cc4sc(N[C@@H]5C[C@H]6CC[C@@H](C5)N6C)nc4cn3)cc(C#N)c2n1 [Compound 245, 2-methyl-6-(2-{[(3-exo)-8-methyl-8-azabicyclo[3.2.1]oct-3-yl]amino][1,3]thiazolo[4,5-c]pyridin-6-yl)imidazo[1,2-a]pyridine-8-carbonitrile] | 1000 to 3000
CN1[C@@H]2CC[C@H]1C[C@H](Nc1nc3cnc(-c4cc(F)c5nn(C)cc5c4)cc3s1)C2 [Compound 246, 6-(7-fluoro-2-methyl-2H-indazol-5-yl)-N-[(3-exo)-8-methyl-8-azabicyclo[3.2.1]oct-3-yl][1,3]thiazolo[4,5-c]pyridin-2-amine] | 1000 to 3000
Cc1cn2cc(-c3cc4sc(N[C@@H]5C[C@H]6CC[C@@H](C5)N6C)nc4cn3)cc(F)c2n1 [Compound 247, 6-(8-fluoro-2-methylimidazo[1,2-a]pyridin-6-yl)-N-[(3-exo)-8-methyl-8-azabicyclo[3.2.1]oct-3-yl][1,3]thiazolo[4,5-c]pyridin-2-amine] | 100 to 500
Cc1cn2nc(-c3cc(F)c4nc(N(C)C5CNC5)sc4c3)cc(C)c2n1 [Compound 248, N-(azetidin-3-yl)-6-(2,8-dimethylimidazo[1,2-b]pyridazin-6-yl)-4-fluoro-N-methyl-1,3-benzothiazol-2-amine] | 100 to 500
Cc1cc2nc(-c3cc(F)c4nc(C5CCNCC5)sc4c3)ccn2n1 [Compound 249, 5-[4-fluoro-2-(piperidin-4-yl)-1,3-benzothiazol-6-yl]-2-methylpyrazolo[1,5-a]pyrimidine] | ≤ 100
Cc1cc2nc(-c3cc(F)c4nc(N(C)C5CCNCC5)sc4c3)ccn2n1 [Compound 250, 4-fluoro-N-methyl-6-(2-methylpyrazolo[1,5-a]pyrimidin-5-yl)-N-(piperidin-4-yl)-1,3-benzothiazol-2-amine] | 100 to 500
Cc1cn2cc(-c3cc4sc(N(C)C5CC6CCCC(C5)N6)nc4cn3)cc(C#N)c2n1 (stereo not shown) [Compound 251, 6-{2-[9-azabicyclo[3.3.1]non-3-yl(methyl)amino][1,3]thiazolo[4,5-c]pyridin-6-yl}-2-methylimidazo[1,2-a]pyridine-8-carbonitrile] | ≤ 100
CN(c1nc2cnc(-c3cc(C#N)c4nn(C)cc4c3)cc2s1)C1CC2CCCC(C1)N2 (stereo not shown) [Compound 252, 5-{2-[9-azabicyclo[3.3.1]non-3-yl(methyl)amino][1,3]thiazolo[4,5-c]pyridin-6-yl}-2-methyl-2H-indazole-7-carbonitrile] | ≤ 100
CN(c1nc2cnc(-c3cc(F)c4nn(C)cc4c3)cc2s1)C1CC2CCCC(C1)N2 (stereo not shown) [Compound 253, N-(9-azabicyclo[3.3.1]non-3-yl)-6-(7-fluoro-2-methyl-2H-indazol-5-yl)-N-methyl[1,3]thiazolo[4,5-c]pyridin-2-amine] | ≤ 100
Cc1cn2cc(-c3ncc4nc(N(C)C5CC6(C)CC[C@](C)(C5)N6)sc4n3)cc(C#N)c2n1 (stereo partly drawn) [Compound 255, 6-(2-{[(1R)-1,5-dimethyl-8-azabicyclo[3.2.1]oct-3-yl](methyl)amino}[1,3]thiazolo[5,4-d]pyrimidin-5-yl)-2-methylimidazo[1,2-a]pyridine-8-carbonitrile] | ≤ 100
Cc1cn2cc(-c3ncc4nc(N(C)C5C[C@H]6CCC[C@@H](C5)N6)sc4n3)cc(C#N)c2n1 (stereo partly drawn) [Compound 256, 6-{2-[(1R,5S)-9-azabicyclo[3.3.1]non-3-yl(methyl)amino][1,3]thiazolo[5,4-d]pyrimidin-5-yl}-2-methylimidazo[1,2-a]pyridine-8-carbonitrile] | ≤ 100
